From patent US20090111778A1, “2-Keto-Oxazoles as Modulators of Fatty Acid Amide Hydrolase” (priority 2005, published 2009)

What was measured:
human FAAH = biological target: T1, human FAAH (Homo sapiens, UniProt O00519); assay: Assay Method 1: FAAH assay, hydrolysis of 3H-anandamide by homogenate of SK-N-MC cells transfected with human FAAH; type: biochemical; conditions: human FAAH; T84 or transfected SK-N-MC cell homogenate; 3H-AEA tracer 80 nM; rt 1 h; pH 9; read-out: Assay 1 IC50
T1 construct: expressed in transfected cells
T1 sequence (O00519 1-579): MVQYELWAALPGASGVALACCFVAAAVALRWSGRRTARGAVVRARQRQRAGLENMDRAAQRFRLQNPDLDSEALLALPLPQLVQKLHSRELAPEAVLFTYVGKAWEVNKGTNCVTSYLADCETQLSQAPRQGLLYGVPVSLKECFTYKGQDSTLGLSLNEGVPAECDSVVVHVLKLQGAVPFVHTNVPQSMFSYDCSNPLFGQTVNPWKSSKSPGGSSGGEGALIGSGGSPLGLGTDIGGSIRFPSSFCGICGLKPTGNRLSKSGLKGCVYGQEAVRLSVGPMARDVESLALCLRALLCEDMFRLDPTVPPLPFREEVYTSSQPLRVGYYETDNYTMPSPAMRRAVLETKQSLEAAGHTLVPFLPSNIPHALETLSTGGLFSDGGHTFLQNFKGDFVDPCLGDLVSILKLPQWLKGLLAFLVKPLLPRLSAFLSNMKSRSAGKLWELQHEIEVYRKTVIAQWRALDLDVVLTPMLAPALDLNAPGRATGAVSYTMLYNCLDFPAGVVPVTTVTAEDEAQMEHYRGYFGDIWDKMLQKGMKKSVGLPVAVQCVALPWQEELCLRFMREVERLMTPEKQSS
Description: A. Transfection of Cells with Human FAAH
(§1) A 10-cm tissue culture dish with a confluent monolayer of SK-N-MC cells was split 2 days (d) prior to transfection. Using sterile technique, the media was removed and the cells were detached from the dish by the addition of trypsin. One fifth of the cells were then placed onto a new 10-cm dish. Cells were grown in a 37° C. incubator with 5% CO2 in Minimal Essential Media Eagle with 10% Fetal Bovine Serum. After 2 d, cells were approximately 80% confluent. These cells were removed from the dish with trypsin and pelleted in a clinical centrifuge. The pellet was re-suspended in 400 μL complete media and transferred to an electroporation cuvette with a 0.4 cm gap between the electrodes. Supercoiled human FAAH cDNA (1 μg) was added to the cells and mixed. The voltage for the electroporation was set at 0.25 kV, and the capacitance was set at 960 μF. After electroporation, the cells were diluted into complete media (10 mL) and plated onto four 10-cm dishes. Because of the variability in the efficiency of electroporation, four different concentrations of cells were plated. The ratios used were 1:20, 1:10, and 1:5, with the remainder of the cells being added to the fourth dish. The cells were allowed to recover for 24 h before adding the selection media (complete media with 600 μg/mL G418). After 10 d, dishes were analyzed for surviving colonies of cells. Dishes with well-isolated colonies were used. Cells from individual colonies were isolated and tested.
The assay mixture consisted of […] of the cell homogenate, 10 μL of the test compound, and 40 μL of anandamide [1-^3H-ethanolamine] (3H-AEA, Perkin-Elmer, 10.3 Ci/mmol), which was added last, for a final tracer concentration of 80 nM. The reaction mixture was incubated at rt for 1 h. During the incubation, 96-well Multiscreen filter plates (catalog number MAFCNOB50; Millipore, Bedford, Mass., USA) were loaded with 25 μL of activated charcoal (Multiscreen column loader, catalog number MACL09625, Millipore) and washed once with 100 μL of MeOH. Also during the incubation, 96-well DYNEX MicroLite plates (catalog number NL510410) were loaded with 100 μL of MicroScint40 (catalog number 6013641, Packard Bioscience, Meriden, Conn., USA). After the 1 h incubation, 60 μL of the reaction mixture were transferred to the charcoal plates, which were then assembled on top of the DYNEX plates using Centrifuge Alignment Frames (catalog number MACF09604, Millipore). The unbound labeled ethanolamine was centrifuged through to the bottom plate (5 min at 2000 rpm), which was preloaded with the scintillant, as described above. The plates were sealed and left at rt for 1 h before counting on a Hewlett Packard TopCount.

rat FAAH = biological target: T2, rat FAAH (Rattus norvegicus, UniProt P97612); assay: Assay Method 2: FAAH assay, hydrolysis of 3H-anandamide by homogenate of SK-N-MC cells transfected with rat FAAH; type: biochemical; conditions: T84 or transfected SK-N-MC cell homogenate, 3H-AEA tracer 80 nM, rt 1 h, pH 9
T2 construct: expressed in transfected cells
T2 sequence (P97612 1-579): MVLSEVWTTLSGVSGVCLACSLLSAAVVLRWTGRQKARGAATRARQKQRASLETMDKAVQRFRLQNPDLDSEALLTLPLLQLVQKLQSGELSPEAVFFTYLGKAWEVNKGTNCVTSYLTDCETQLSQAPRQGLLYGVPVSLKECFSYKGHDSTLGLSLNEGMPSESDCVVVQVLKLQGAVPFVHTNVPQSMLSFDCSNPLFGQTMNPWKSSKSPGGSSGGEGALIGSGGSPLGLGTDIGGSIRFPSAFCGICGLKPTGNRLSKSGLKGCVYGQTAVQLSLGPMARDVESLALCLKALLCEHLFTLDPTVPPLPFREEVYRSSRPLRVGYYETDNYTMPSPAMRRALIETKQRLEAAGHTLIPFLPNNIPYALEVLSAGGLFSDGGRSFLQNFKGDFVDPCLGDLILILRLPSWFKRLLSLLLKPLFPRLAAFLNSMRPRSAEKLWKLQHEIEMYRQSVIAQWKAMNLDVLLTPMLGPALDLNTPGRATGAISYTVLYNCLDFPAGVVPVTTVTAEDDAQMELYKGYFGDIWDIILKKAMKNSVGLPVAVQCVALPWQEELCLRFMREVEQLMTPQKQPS
Description: as §1, with “A. Transfection of Cells with Rat FAAH A 10-cm” for “A 10-cm”, “electrodes. Supercoiled rat FAAH cDNA” for “electrodes. Supercoiled human FAAH cDNA”, “and tested. […] B. FAAH Assay […] The reaction mixture was incubated at rt for 1 h. During the incubation, 96-well Multiscreen filter plates (catalog number MAFCNOB50; Millipore, Bedford, Mass., USA) were loaded with 25 μL of activated charcoal (Multiscreen column loader, catalog number MACL09625, Millipore) and washed once with 100 μL of MeOH. Also during the incubation, 96-well DYNEX MicroLite plates (catalog number NL510410) were loaded with 100 μL of MicroScint40 (catalog number 6013641, Packard Bioscience, Meriden, Conn., USA). After the 1 h incubation, 60 μL of the reaction mixture were transferred to the charcoal plates, which were then assembled on top of the DYNEX plates using Centrifuge Alignment Frames (catalog number MACF09604, Millipore). The unbound labeled ethanolamine was centrifuged through to the bottom plate (5 min at 2000 rpm), which was preloaded with the scintillant, as described above. The plates were sealed and left at rt for 1 h before counting on a Hewlett Packard TopCount.” for “and tested.”

| SMILES | IC50 (human FAAH) [nM] | IC50 (rat FAAH) [nM] |
| --- | --- | --- |
| O=C(CCCC1CCN(C(=O)COc2ccc(Cl)cc2)CC1)c1ncco1 [Example 35, 4-{1-[2-(4-Chloro-phenoxy)-acetyl]-piperidin-4-yl}-1-oxazol-2-yl-butan-1-one] | 19 | 38 |
| O=C(CCCC1CCN(C(=O)CCc2ccccc2)CC1)c1ncco1 [Example 36, 1-Oxazol-2-yl-4-[1-(3-phenyl-propionyl)-piperidin-4-yl]-butan-1-one] | 46 | 56 |
| O=C(CCCC1CCN(C(=O)CCc2ccc(Oc3ccccc3)cc2)CC1)c1ncco1 [Example 37, 1-Oxazol-2-yl-4-{1-[3-(4-phenoxy-phenyl)-propionyl]-piperidin-4-yl}-butan-1-one] | 22 | 18 |
| Cc1ccc(CC(=O)N2CCC(CCCC(=O)c3ncco3)CC2)cc1 [Example 38, 1-Oxazol-2-yl-4-[1-(2-p-tolyl-acetyl)-piperidin-4-yl]-butan-1-one] | 100 | 100 |
| Cc1cccc(CC(=O)N2CCC(CCCC(=O)c3ncco3)CC2)c1 [Example 39, 1-Oxazol-2-yl-4-[1-(2-m-tolyl-acetyl)-piperidin-4-yl]-butan-1-one] | 834 | 463 |
| O=C(CCCC1CCN(C(=O)Cc2ccc(Cl)cc2)CC1)c1ncco1 [Example 40, 4-{1-[2-(4-Chloro-phenyl)-acetyl]-piperidin-4-yl}1-oxazol-2-yl-butan-1-one] | 43 | 75 |
| O=C(CCCC1CCN(C(=O)Cc2cccc(Cl)c2)CC1)c1ncco1 [Example 41, 4-{1-[2-(3-Chloro-phenyl)-acetyl]-piperidin-4-yl}-1-oxazol-2-yl-butan-1-one] | 640 | 712 |
| O=C(CCCC1CCN(C(=O)Cc2ccccc2Cl)CC1)c1ncco1 [Example 42, 4-{1-[2-(2-Chloro-Phenyl)-acetyl]-piperidin-4-yl}-1-oxazol-2-yl-butan-1-one] | 430 | 800 |
| Cc1ccc(CCC(=O)N2CCC(CCCC(=O)c3ncco3)CC2)cc1 [Example 44, 1-Oxazol-2-yl-4-[1-(3-p-tolyl-propionyl)-piperidin-4-yl]-butan-1-one] | 40 | 10 |
| Cc1ccccc1CCC(=O)N1CCC(CCCC(=O)c2ncco2)CC1 [Example 45, 1-Oxazol-2-yl-4-[1-(3-o-tolyl-propionyl)-piperidin-4-yl]-butan-1-one] | 109 | 130 |
| O=C(CCCC1CCN(C(=O)CCc2ccc(Cl)cc2)CC1)c1ncco1 [Example 46, 4-{1-[3-(4-Chloro-phenyl)-propionyl]-piperidin-4-yl}-1-oxazol-2-yl-butan-1-one] | 12 | 3 |
| O=C(CCCC1CCN(C(=O)CCc2cccnc2)CC1)c1ncco1 [Example 47, 1-Oxazol-2-yl-4-[1-(3-pyridin-3-yl-propionyl)-piperidin-4-yl]-butan-1-one] | 400 | 700 |
| O=C(CCCC1CCN(C(=O)CC2CCCC2)CC1)c1ncco1 [Example 48, 4-[1-(2-Cyclopentyl-acetyl)-piperidin-4-yl]-1-oxazol-2-yl-butan-1-one] | 100 | 216 |
| O=C(CCCC1CCN(C(=O)CC2CCCCC2)CC1)c1ncco1 [Example 49, 4-[1-(2-Cyclohexyl-acetyl)-piperidin-4-yl]-1-oxazol-2-yl-butan-1-one] | 100 | 350 |
| O=C(CCCC1CCN(C(=O)CCC2CCCCC2)CC1)c1ncco1 [Example 50, 4-[1-(3-Cyclohexyl-propionyl)-piperidin-4-yl]-1-oxazol-2-yl-butan-1-one] | 2 | 10 |
| CC(C)CCC(=O)N1CCC(CCCC(=O)c2ncco2)CC1 [Example 51, 4-Methyl-1-[4-(4-oxazol-2-yl-4-oxo-butyl)-piperidin-1-yl]-pentan-1-one] | 230 | 635 |
| Cc1ccc(S(=O)(=O)N2CCC(CCCC(=O)c3ncco3)CC2)cc1 [Example 52, 1-Oxazol-2-yl-4-[1-(toluene-4-sulfonyl)-piperidin-4-yl]-butan-1-one] | 1040 | 13 |
| O=C(CCCC1CCN(S(=O)(=O)Cc2ccccc2)CC1)c1ncco1 [Example 53, 1-Oxazol-2-yl-4-(1-phenylmethanesulfonyl-piperidin-4-yl)-butan-1-one] | 600 | 800 |
| O=C(CCCC1CCN(S(=O)(=O)CCc2ccccc2)CC1)c1ncco1 [Example 54, 1-Oxazol-2-yl-4-[1-(2-phenyl-ethanesulfonyl)-piperidin-4-yl]-butan-1-one] | 6 | 125 |
| O=C(CCCC1CCN(S(=O)(=O)c2ccc(F)cc2)CC1)c1ncco1 [Example 55, 4-[1-(4-Fluoro-benzenesulfonyl)-piperidin-4-yl]-1-oxazol-2-yl-butan-1-one] | 905 | 95 |
